From ChEMBL document CHEMBL1201862, “PubChem BioAssay data set” (2004)
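Five compound concentrations were applied to cells in 96-well plates for 48 hours; endpoints were derived by simple linear interpolation of the resulting dose-response curve. Here, GI50 denotes the concentration required for 50% inhibition of growth.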 The source made the active and inactive calls. No stated cut-off is given here; in the data, active = GI50 up to about 1.1 µM and inactive = higher.

Tests used:
Assay in all cases: DTP human tumour cell line panel, 48 h
A498 = system: A498
CCRF-CEM = system: CCRF-CEM
HOP-92 = system: HOP-92
KM-20L2 = system: KM-20L2
M14 = system: M14
UACC-257 = system: UACC-257
A549 = system: A549
DLD-1 = system: DLD-1
DMS-273 = system: DMS-273
HCT-15 = system: HCT-15
HOP-18 = system: HOP-18
SK-MEL-5 = system: SK-MEL-5
SW-620 = system: SW-620
TK-10 = system: TK-10
LOX IMVI = system: LOX IMVI
XF498 = system: XF498
DU-145 = system: DU-145
Hs-578T = system: Hs-578T
MDA-MB-435 = system: MDA-MB-435
PC-3 = system: PC-3

| Structure (SMILES) | GI50 (A498) | GI50 (CCRF-CEM) | GI50 (HOP-92) | GI50 (KM-20L2) | GI50 (M14) | GI50 (UACC-257) | GI50 (A549) | GI50 (DLD-1) | GI50 (DMS-273) | GI50 (HCT-15) | GI50 (HOP-18) | GI50 (SK-MEL-5) | GI50 (SW-620) | GI50 (TK-10) | GI50 (LOX IMVI) | GI50 (XF498) | GI50 (DU-145) | GI50 (Hs-578T) | GI50 (MDA-MB-435) | GI50 (PC-3) |
| --- | --- | --- | --- | --- | --- | --- | --- | --- | --- | --- | --- | --- | --- | --- | --- | --- | --- | --- | --- | --- |
| COC1CCC(OS(C)(=O)=O)CO1 (centres undefined) | > 100 µM (inactive) | 22.5 µM (inactive) | > 100 µM (inactive) | > 100 µM (inactive) | > 100 µM (inactive) | > 100 µM (inactive) |  |  |  |  |  |  |  |  |  |  |  |  |  |  |
| COC1=CC(=O)c2ccccc2C1(CCC=C(C)C)C1=NC(C)(C)CO1 (centres undefined) |  | 28.6 µM (inactive) | 99.3 µM (inactive) | > 100 µM (inactive) | > 100 µM (inactive) | 54.6 µM (inactive) | 51.6 µM (inactive) | > 100 µM (inactive) | 72.4 µM (inactive) | 61.1 µM | 43.6 µM (inactive) | > 100 µM (inactive) | > 100 µM (inactive) | > 100 µM (inactive) |  |  |  |  |  |  |
| CN1C(=O)NC2(O)c3ccccc3C(=O)C12O (centres undefined) |  | > 100 µM (inactive) | > 100 µM (inactive) | > 100 µM (inactive) | > 100 µM (inactive) | > 100 µM (inactive) | > 100 µM (inactive) | > 100 µM (inactive) |  | > 100 µM |  |  | > 100 µM (inactive) | > 100 µM (inactive) | > 100 µM (inactive) | > 100 µM (inactive) |  |  |  |  |
| Cc1ccccc1NC(=O)CC(=O)N1N=C(N2c3ccccc3Sc3ccccc32)CC1c1ccccc1 (centres undefined) | > 100 µM (inactive) |  | > 100 µM (inactive) | > 100 µM (inactive) | > 100 µM (inactive) | > 100 µM (inactive) | > 100 µM (inactive) | > 100 µM (inactive) | > 100 µM (inactive) | > 100 µM |  | > 100 µM (inactive) | > 100 µM (inactive) | > 100 µM (inactive) | > 100 µM (inactive) | > 100 µM (inactive) |  |  |  |  |
| COc1ccccc1C1C(C(=O)O)=C(CO)Oc2cc3c(cc21)OCO3 (centres undefined) | > 100 µM (inactive) | > 100 µM (inactive) | > 100 µM (inactive) | > 100 µM (inactive) | > 100 µM (inactive) |  |  |  | > 100 µM (inactive) | > 100 µM | > 100 µM (inactive) | > 100 µM (inactive) | > 100 µM (inactive) | > 100 µM (inactive) | > 100 µM (inactive) |  |  |  |  |  |
| Cc1ccccc1NC(=O)C(=O)C1CN(c2ccccc2)N=C1N (centres undefined) | > 100 µM (inactive) | > 100 µM (inactive) | > 100 µM (inactive) | > 100 µM (inactive) | > 100 µM (inactive) | > 100 µM (inactive) | > 100 µM (inactive) | > 100 µM (inactive) |  |  |  | > 10 µM (inactive) |  |  |  | > 100 µM (inactive) |  |  |  |  |
| CC1CC2=Nc3ccccc3NC(c3ccccc3)C2=C(O)O1 (centres undefined) | > 100 µM (inactive) | > 100 µM (inactive) |  | > 100 µM (inactive) | > 100 µM (inactive) | > 100 µM (inactive) | > 100 µM (inactive) | > 100 µM (inactive) | > 100 µM (inactive) | > 100 µM | > 100 µM (inactive) | > 100 µM (inactive) | > 100 µM (inactive) | > 100 µM (inactive) | > 100 µM (inactive) |  |  |  |  |  |
| CC(C)(C)C1=NO[C@H]2[C@@H](NC(=O)c3ccccc3)CC[C@@H]12 |  | > 100 µM (inactive) | 98.2 µM (inactive) | > 100 µM (inactive) | > 100 µM (inactive) | > 100 µM (inactive) | > 100 µM (inactive) | > 100 µM (inactive) |  | > 100 µM |  | > 100 µM (inactive) | > 100 µM (inactive) | > 100 µM (inactive) | > 100 µM (inactive) | > 100 µM (inactive) |  |  |  |  |
| CN(C)CCCCN1c2ccccc2Sc2ccc(N=[N+]=[N-])cc21 | 8.73 µM (inactive) | 2.69 µM (inactive) | 3.56 µM (inactive) |  | 1.67 µM (inactive) | 1.92 µM (inactive) | 9.93 µM (inactive) |  |  | 3.72 µM |  | 1.67 µM (inactive) | 4.82 µM (inactive) | 12.1 µM (inactive) | 2.26 µM (inactive) |  | 5.7 µM (inactive) | 5.22 µM (inactive) | 2.06 µM (inactive) | 3.15 µM (inactive) |
| CN(C)c1nc2sc3c(c2c(=O)o1)CCCC3 | 16 µM (inactive) | 39.4 µM (inactive) | 36.9 µM (inactive) |  | 40.1 µM (inactive) | 73.8 µM (inactive) | 29.2 µM (inactive) |  |  | 33.3 µM |  | 23.8 µM (inactive) | 54.8 µM (inactive) | > 100 µM (inactive) | 52 µM (inactive) |  | 27.8 µM (inactive) | 16.7 µM (inactive) | 31.5 µM (inactive) | 34.4 µM (inactive) |
| CN1COCc2c1ccc1cc3ccc4c(c3nc21)COCN4S(C)(=O)=O | > 100 µM (inactive) | > 100 µM (inactive) | > 100 µM (inactive) |  | > 100 µM (inactive) | > 100 µM (inactive) | > 100 µM (inactive) |  |  | > 100 µM |  | > 100 µM (inactive) | > 100 µM (inactive) | > 100 µM (inactive) | > 100 µM (inactive) |  | > 100 µM (inactive) | 95.9 µM (inactive) | > 100 µM (inactive) | > 100 µM (inactive) |
